According to patent publication US7119075B2, “Use of herbal agents for potentiation of bioefficacy of anti infectives” (priority 2003, dated 2006):

Legend:
Experiment in all cases: Inhibitory effect of bioenhancers alone
Format in all cases: cell-based
[1] = tested on: Aspergillus fumigatus SI-1; conditions: Aspergillus fumigatus, SI1
[2] = tested on: Aspergillus flavus MTCC 1973; conditions: Aspergillus flavus, MTCC1973
[3] = tested on: Methicillin Resistant Staphylococcus aureus (MRSA); conditions: Staphylococcus aureus, MRSA
[4] = tested on: Candida tropicalis ATCC 750; conditions: Candida tropicalis, ATCC750
[5] = tested on: Pseudomonas aeruginosa ATCC 27583; conditions: Pseudomonas aeruginosa, ATCC27583
Salmonella typhi AIIMS 2 = conditions: Salmonella enterica, TYPHI, read-out: inhibitory effect
Candida krusei ATCC 6258 = conditions: Pichia kudriavzevii, ATCC6258
[6] = tested on: Staphylococcus hemolyticus ATCC 29978; conditions: Staphylococcus, ATCC29978
[7] = tested on: Mycobacterium intracelluare ATCC 13950; conditions: Mycobacterium, ATCC13950
[8] = tested on: Staphylococcus aureus ATCC 29313; conditions: Staphylococcus aureus, ATCC29313
[9] = tested on: Mycobacterium tuberculosis H37Rv; conditions: Mycobacterium tuberculosis, H37RV, read-out: inhibitory effect
[10] = tested on: Escherichia coli ATCC 25922; conditions: Escherichia coli, ATCC25922
[11] = tested on: Mycobacterium tuberculosis 615; conditions: Mycobacterium tuberculosis, 615
Bacillus cereus RRL 02 = conditions: Bacillus cereus, RRL02
[12] = tested on: Klebsiella pneumoniae ATCC 75388; conditions: Klebsiella pneumoniae, ATCC75388
[13] = tested on: Staphylococcus epidermidis ATCC 12228; conditions: Staphylococcus epidermidis, ATCC12228
[14] = tested on: Mycobacterium avium ATCC 49601; conditions: Mycobacterium avium, ATCC49601

O=C(/C=C/C=C/c1ccc2c(c1)OCO2)N1CCCCC1 [piperine]
inhibition at 0.2 µg/mL ([1]; conc. 0.2 μg/ml): 0% | inhibition at 0.8 µg/mL ([1]; conc. 0.8 μg/ml): 0% | inhibition at 3.12 µg/mL ([1]; conc. 3.12 μg/ml): 0% | inhibition at 12.5 µg/mL ([1]; conc. 12.5 μg/ml): 0% | inhibition at 50 µg/mL ([1]; conc. 50 μg/ml): 20% | inhibition at 100 µg/mL ([1]; conc. 100 μg/ml): 50% | inhibition at 0.2 µg/mL ([2]; conc. 0.2 μg/ml): 0% | inhibition at 0.8 µg/mL ([2]; conc. 0.8 μg/ml): 0% | inhibition at 3.12 µg/mL ([2]; conc. 3.12 μg/ml): 0% | inhibition at 12.5 µg/mL ([2]; conc. 12.5 μg/ml): 0% | inhibition at 50 µg/mL ([2]; conc. 50 μg/ml): 20% | inhibition at 100 µg/mL ([2]; conc. 100 μg/ml): 50% | inhibition at 0.2 µg/mL ([3]; conc. 0.2 μg/ml): 0% | inhibition at 0.8 µg/mL ([3]; conc. 0.8 μg/ml): 0% | inhibition at 3.12 µg/mL ([3]; conc. 3.12 μg/ml): 0% | inhibition at 12.5 µg/mL ([3]; conc. 12.5 μg/ml): 0% | inhibition at 50 µg/mL ([3]; conc. 50 μg/ml): 0% | inhibition at 100 µg/mL ([3]; conc. 100 μg/ml): 20% | inhibition at 0.2 µg/mL ([4]; conc. 0.2 μg/ml): 0% | inhibition at 0.8 µg/mL ([4]; conc. 0.8 μg/ml): 0% | inhibition at 3.12 µg/mL ([4]; conc. 3.12 μg/ml): 0% | inhibition at 12.5 µg/mL ([4]; conc. 12.5 μg/ml): 0% | inhibition at 50 µg/mL ([4]; conc. 50 μg/ml): 0% | inhibition at 100 µg/mL ([4]; conc. 100 μg/ml): 20% | inhibition at 0.2 µg/mL ([5]; conc. 0.2 μg/ml): 0% | inhibition at 0.8 µg/mL ([5]; conc. 0.8 μg/ml): 0% | inhibition at 3.12 µg/mL ([5]; conc. 3.12 μg/ml): 0% | inhibition at 12.5 µg/mL ([5]; conc. 12.5 μg/ml): 0% | inhibition at 50 µg/mL ([5]; conc. 50 μg/ml): 0% | inhibition at 100 µg/mL ([5]; conc. 100 μg/ml): 0% | inhibition at 0.2 µg/mL (Salmonella typhi AIIMS 2): 0% | inhibition at 0.8 µg/mL (Salmonella typhi AIIMS 2): 0% | inhibition at 3.12 µg/mL (Salmonella typhi AIIMS 2): 0% | inhibition at 12.5 µg/mL (Salmonella typhi AIIMS 2): 0% | inhibition at 50 µg/mL (Salmonella typhi AIIMS 2): 0% | inhibition at 100 µg/mL (Salmonella typhi AIIMS 2): 0% | inhibition at 0.2 µg/mL (Candida krusei ATCC 6258; conc. 0.2 μg/ml): 0% | inhibition at 0.8 µg/mL (Candida krusei ATCC 6258; conc. 0.8 μg/ml): 0% | inhibition at 3.12 µg/mL (Candida krusei ATCC 6258; conc. 3.12 μg/ml): 0% | inhibition at 12.5 µg/mL (Candida krusei ATCC 6258; conc. 12.5 μg/ml): 0% | inhibition at 50 µg/mL (Candida krusei ATCC 6258; conc. 50 μg/ml): 0% | inhibition at 100 µg/mL (Candida krusei ATCC 6258; conc. 100 μg/ml): 20% | inhibition at 0.2 µg/mL ([6]; conc. 0.2 μg/ml): 0% | inhibition at 0.8 µg/mL ([6]; conc. 0.8 μg/ml): 0% | inhibition at 3.12 µg/mL ([6]; conc. 3.12 μg/ml): 0% | inhibition at 12.5 µg/mL ([6]; conc. 12.5 μg/ml): 0% | inhibition at 50 µg/mL ([6]; conc. 50 μg/ml): 20% | inhibition at 100 µg/mL ([6]; conc. 100 μg/ml): 50% | inhibition at 0.2 µg/mL ([7]; conc. 0.2 μg/ml): 0% | inhibition at 0.8 µg/mL ([7]; conc. 0.8 μg/ml): 0% | inhibition at 3.12 µg/mL ([7]; conc. 3.12 μg/ml): 0% | inhibition at 12.5 µg/mL ([7]; conc. 12.5 μg/ml): 0% | inhibition at 50 µg/mL ([7]; conc. 50 μg/ml): 0% | inhibition at 100 µg/mL ([7]; conc. 100 μg/ml): 0% | inhibition at 0.2 µg/mL ([8]; conc. 0.2 μg/ml): 0% | inhibition at 0.8 µg/mL ([8]; conc. 0.8 μg/ml): 0% | inhibition at 3.12 µg/mL ([8]; conc. 3.12 μg/ml): 0% | inhibition at 12.5 µg/mL ([8]; conc. 12.5 μg/ml): 0% | inhibition at 50 µg/mL ([8]; conc. 50 μg/ml): 0% | inhibition at 100 µg/mL ([8]; conc. 100 μg/ml): 20% | inhibition at 0.2 µg/mL [9]: 0% | inhibition at 0.8 µg/mL [9]: 0% | inhibition at 3.12 µg/mL [9]: 0% | inhibition at 12.5 µg/mL [9]: 0% | inhibition at 50 µg/mL [9]: 0% | inhibition at 100 µg/mL [9]: 0% | inhibition at 0.2 µg/mL ([10]; conc. 0.2 μg/ml): 0% | inhibition at 0.8 µg/mL ([10]; conc. 0.8 μg/ml): 0% | inhibition at 3.12 µg/mL ([10]; conc. 3.12 μg/ml): 0% | inhibition at 12.5 µg/mL ([10]; conc. 12.5 μg/ml): 0% | inhibition at 50 µg/mL ([10]; conc. 50 μg/ml): 0% | inhibition at 100 µg/mL ([10]; conc. 100 μg/ml): 0% | inhibition at 0.2 µg/mL ([11]; conc. 0.2 μg/ml): 0% | inhibition at 0.8 µg/mL ([11]; conc. 0.8 μg/ml): 0% | inhibition at 3.12 µg/mL ([11]; conc. 3.12 μg/ml): 0% | inhibition at 12.5 µg/mL ([11]; conc. 12.5 μg/ml): 0% | inhibition at 50 µg/mL ([11]; conc. 50 μg/ml): 0% | inhibition at 100 µg/mL ([11]; conc. 100 μg/ml): 0% | inhibition at 0.2 µg/mL (Bacillus cereus RRL 02; conc. 0.2 μg/ml): 0% | inhibition at 0.8 µg/mL (Bacillus cereus RRL 02; conc. 0.8 μg/ml): 0% | inhibition at 3.12 µg/mL (Bacillus cereus RRL 02; conc. 3.12 μg/ml): 0% | inhibition at 12.5 µg/mL (Bacillus cereus RRL 02; conc. 12.5 μg/ml): 0% | inhibition at 50 µg/mL (Bacillus cereus RRL 02; conc. 50 μg/ml): 0% | inhibition at 100 µg/mL (Bacillus cereus RRL 02; conc. 100 μg/ml): 0% | inhibition at 0.2 µg/mL ([12]; conc. 0.2 μg/ml): 0% | inhibition at 0.8 µg/mL ([12]; conc. 0.8 μg/ml): 0% | inhibition at 3.12 µg/mL ([12]; conc. 3.12 μg/ml): 0% | inhibition at 12.5 µg/mL ([12]; conc. 12.5 μg/ml): 0% | inhibition at 50 µg/mL ([12]; conc. 50 μg/ml): 0% | inhibition at 100 µg/mL ([12]; conc. 100 μg/ml): 0% | inhibition at 0.2 µg/mL ([13]; conc. 0.2 μg/ml): 0% | inhibition at 0.8 µg/mL ([13]; conc. 0.8 μg/ml): 0% | inhibition at 3.12 µg/mL ([13]; conc. 3.12 μg/ml): 0% | inhibition at 12.5 µg/mL ([13]; conc. 12.5 μg/ml): 0% | inhibition at 50 µg/mL ([13]; conc. 50 μg/ml): 20% | inhibition at 100 µg/mL ([13]; conc. 100 μg/ml): 50% | inhibition at 0.2 µg/mL ([14]; conc. 0.2 μg/ml): 0% | inhibition at 0.8 µg/mL ([14]; conc. 0.8 μg/ml): 0% | inhibition at 3.12 µg/mL ([14]; conc. 3.12 μg/ml): 0% | inhibition at 12.5 µg/mL ([14]; conc. 12.5 μg/ml): 0% | inhibition at 50 µg/mL ([14]; conc. 50 μg/ml): 0% | inhibition at 100 µg/mL ([14]; conc. 100 μg/ml): 0%
